Experiment [1] deals with thymic stromal lymphopoietin (TSLP). Nature of the experiment: TSLP ELISA in deep bronchial brushings (DBB). The class given is in vivo, human. Particulars: for TSLP in DBB, Δ from baseline, median (IQR): Day 14 minus screening. An excerpt:
Bronchoscopists were instructed to obtain a total of 6 brushings from 3 of the basilar bronchial segments of the right lower lobe: the anterior basilar segment, the lateral basilar segment, and the posterior basilar segment. With the bronchoscope proximal to or within the orifice of the appropriate basilar segment, the brush sheath was to be passed out 5 cm beyond the subsegment orifice, and then the brush was fully extended an additional 1 cm for a total of 6 cm beyond the orifice of the subsegmental bronchus. At the desired depth, the sheath was to be gently pulled back and forward for 15 strokes to brush the small airways. The brushing process was repeated using any combination of the 3 basilar segments described above, at the discretion of the bronchoscopist, for a total of 6 six separate brush samples.
Protein isolation and preparation of DBB samples for ELISAs were performed as previously described[47] according to manufacturer’s instructions for COL1A1 (#ab210966, abcam), CXCL7 (#LS-F4967-1, LS Bio), GAL7 (#DY1339, R&D Systems), IL-11 (#DY218, R&D Systems), and TSLP (#DY1398, R&D Systems).
(§1) Descriptive statistics are reported as medians with interquartile ranges (IQR). The Hodges-Lehmann estimator was used for the median difference between groups (treatment minus placebo), with approximate 90% confidence intervals (asymmetric, exact level varied slightly with small n). Cliff’s delta was calculated as effect size using the formula δ = (2U / (n1 × n2)) − 1, with thresholds: |δ | <0.3 small effect, 0.3–0.5 medium effect, >0.5 large effect. […] No adjustment for multiplicity was performed, as these were pre-specified, hypothesis-driven exploratory analyses. All biomarker statistical analyses were conducted using GraphPad Prism Version v10.0.

Experiment [2] concerns surfactant protein D (SP-D). Put plainly: SP-D in plasma, MSD-ECL assay. In kind it is in vivo, human. The settings on record: for SP-D in plasma, Δ from baseline, median (IQR): Day 14 minus screening, N = 8; for SP-D in plasma, median difference vs placebo (Hodges-Lehmann): N = 8 vs pooled placebo N = 5. On the procedure: Blood samples for biomarker assessments in PBMCs and platelet-rich plasma were collected prior to the initial dose and on day 14 following the last dose. Following optimization for detection of analytes in IPF matrices, meso-scale discovery electrochemiluminescence (MSD-ECL) assays were performed at BioAgylitix for SP-D (#K1519XR-2, MSD) in plasma and AKT/pAKT (#K15100D-1, MSD) in PBMCs according to manufacturer’s instructions.
as §1

Each structure is given as a SMILES string. Where a SMILES comes first, the peptide text is derived from it.

As for `CC(C)[C@H](NC(=O)[C@@H](NC(=O)[C@H](Cc1ccccc1)NC(=O)[C@@H](NC(=O)[C@@H](NC(=O)[C@@H](N)Cc1ccccc1)[C@@H](C)O)[C@@H](C)O)[C@@H](C)O)C(=O)N[C@H](C(=O)O)[C@@H](C)O` [LTI-03] (H-FTTFTVT-OH; N-terminus and C-terminus assumed), the “TSLP in DBB, Δ from baseline, median (IQR)” value in experiment [1] (5 mg/day, N = 7) was −2.106 pg/mg protein; in experiment [1] (10 mg/day, N = 9), −2.09 pg/mg protein. Besides, the “TSLP in DBB, median difference vs placebo (Hodges-Lehmann)” value in experiment [1] (5 mg/day, N = 7 vs pooled placebo N = 6, one-tailed Mann-Whitney p = 0.0256) is −19.66 pg/mg protein; in experiment [1] (10 mg/day, N = 9 vs pooled placebo N = 6, one-tailed Mann-Whitney p = 0.0128), −19.07 pg/mg protein. Moreover, the “SP-D in plasma, Δ from baseline, median (IQR)” value in experiment [2] (5 mg/day) was 3290 pg/mL; in experiment [2] (10 mg/day) it was -3264 pg/mL. For the same molecule, the “SP-D in plasma, median difference vs placebo (Hodges-Lehmann)” value in experiment [2] (5 mg/day, one-tailed Mann-Whitney p = 0.3108) was 3428 pg/mL; in experiment [2] (10 mg/day, one-tailed Mann-Whitney p = 0.1111), -8368 pg/mL. Further, the “decrease of plasma SP-D compared to placebo” value in experiment [2] (10 mg/day, baseline to Day 14, p = 0.1111, not statistically significant) came to 5%.

For the origin of these results see article PMC13427755 (Nature Communications, 2026).
